One may read the melting point as the temperature, or range, at which the solid turns liquid.

For one data set, the system named is mouse spleen cells. The experiment in a line: Proliferation inhibition assay for mouse spleen cells. The data set is classed as cell-based. The conditions noted are these: 3 days, Alamar Blue. As for the experimental part:
Spleen cells (2×10^6 cells/mL) prepared from C57BL/6N female mice (8 weeks old, purchased from Charles River Laboratories Japan Inc.) were suspended in RPMI 1640 medium (containing 10% fetal bovine serum, 10 mM HEPES, 1 mM pyruvic acid, 4.5 g/L glucose, 100 units/mL penicillin, and 0.1 mg/mL streptomycin), and seeded in wells of a 96 well plate at 0.225 mL per well. Serial dilutions of test substances were added to respective wells, and then concanavalin A (Con A, 3 μg/mL), lipopolysaccharide (LPS, 100 μg/mL), or an anti-mouse IgM antibody (100 μg/mL) were added. Thereafter, they were incubated under conditions of carbon dioxide 5% at a temperature 37° C. for 3 days. Next, Alamar Blue solution was added at 50 μL per 150 μL, and after having cultured for one day, the fluorescence intensity at 590 nm using an excitation wavelength of 530 nm was determined by Cytoflour 4000 (Applied Biosystems).
For orientation: Resazurin is reduced to fluorescent resorufin, in cell work by metabolically active cells.

The subject of data set [1] is Rabbit synoviocytes HIG-82. The data set can be described thus: Inhibition assay for proliferation of rabbit synoviocyte. Type of data set: cell-based. The conditions noted are these: HIG-82, 3 days, Alamar Blue. How it is done: Rabbit synoviocytes HIG-82 suspended in HAM medium (containing 10% fetal bovine serum, 25 mM HEPES, and 0.1 mg/mL kanamycin) (with 4×10^4 cells/mL) were seeded in wells of a 96 well plate at 0.135 mL per well. Then, 15 μL of each of serial dilutions of test substances was added to a respective well, and incubated under conditions of carbon dioxide 5% at a temperature 37° C. Alamar Blue solution was added at 50 μL per well on day 0 and day 3, and incubated for one day, and thereafter fluorescence intensity at 590 nm using an excitation wavelength of 530 nm was determined by Cytoflour 4000 (Applied Biosystems).

A further data set deals with Daudi cells. The experiment in a line: Proliferation inhibitory activity on hematologic neoplasm cells, Daudi. The data set is classed as cell-based. To be noted: 3 days, Alamar Blue. How it is done:
(§1) Daudi cells (5×10^5 cells/mL), Jurkat cells (5×10^5 cells/mL), THP-1 cells (5×10^5 cells/mL), U 937 cells (5×10^5 cells/mL), and HL 60 cells (5×10^5 cells/mL) suspended in RPMI 1640 medium (containing 10% fetal bovine serum, 10 mM HEPES, 1 mM pyruvic acid, 4.5 g/L glucose, 100 units/mL penicillin, and 0.1 mg/mL streptomycin) were seeded in 96 well plates at a capacity of 0.135 mL per well. Serial dilutions of test substances were added to respective wells at 15 μL/well, and incubated under conditions of carbon dioxide 5% at 37° C. for 3 days. Thereafter, Alamar Blue solution was added at 50 μL, and after incubation for one day, the fluorescence intensity at 590 nm using an excitation wavelength of 530 nm was determined by Cytoflour 4000 (Applied Biosystems).

The subject of another data set is Jurkat cells. The data set can be described thus: Proliferation inhibitory activity on hematologic neoplasm cells, Jurkat. To be noted: 3 days, Alamar Blue. The data set is classed as cell-based. As for the experimental part:
as §1

Another data set relates to THP-1 cells. The experiment in a line: Proliferation inhibitory activity on hematologic neoplasm cells, THP-1. The data set is classed as cell-based. The conditions noted are these: 3 days, Alamar Blue. How it is done:
as §1

Where [2] appears, read: 72 h, LPS 100 μg/mL, read-out: Inhibition of LPS response.
[3] abbreviates: 72 h, anti-mouse IgM antibody 100 μg/mL, read-out: Inhibition of Anti-IgM antibody response.
[4] abbreviates: 72 h, concanavalin A 3 μg/mL, read-out: Inhibition of Con A response.

Read-outs that look alike come from different tables or passages of the source. A value given as a limit tells only on which side of the number the result lay.

Compound `CCOc1ccc2nc(C(F)F)n(-c3nc(N4CCOCC4)nc(N4CCOCC4)n3)c2c1` [Compound 9, 2-(2-Difluoromethyl-6-ethoxybenzimidazol-1-yl)-4,6-dimorpholino-1,3,5-triazine] registered a melting point of 222 to 224 °C. Besides, the IC50 in the data set with mouse spleen cells (setting [2]) lay in the range of 1 to 100 nM. In addition, the IC50 in the data set with mouse spleen cells (setting [3]) is 1 to 100 nM. Besides, the IC50 in the data set on mouse spleen cells (setting [4]) lay in the range of 1 to 100 nM.

For `CC1(C)CN(c2nc(N3CCOCC3)nc(-n3c(C(F)F)nc4ccc(N)cc43)n2)CCO1` [Compound 13, 2-(6-Amino-2-difluoromethylbenzimidazol-1-yl)-4-(2,2-dimethylmorpholino)-6-morpholino-1,3,5-triazine], the melting point was 226 to 227 °C (dec.). Moreover, the IC50 in the data set with mouse spleen cells (setting [2]) was in the range of 1 to 100 nM. The IC50 in the data set with mouse spleen cells (setting [3]) lay in the range of 1 to 100 nM. Besides, the IC50 with mouse spleen cells (setting [4]) is 1 to 100 nM.

`COC(=O)N1CCN(c2nc(N3CCOCC3)nc(-n3c(C(F)F)nc4ccccc43)n2)CC1` [Production Example 43, 2-(2-Difluoromethylbenzimidazol-1-yl)-4-(4-methoxycarbonylpiperazin-1-yl)-6-morpholino-1,3,5-triazine] gave a melting point of 255 to 260 °C.

As for `Nc1cc(Cl)c2nc(C(F)F)n(-c3nc(N4CCOCC4)nc(N4CCCC4CO)n3)c2c1` (stereo not shown) [Production Example 30, 2-(6-Amino-4-chloro-2-difluoromethylbenzimidazol-1-yl)-4-(2-hydroxymethylpyrrolidin-1-yl)-6-morpholino-1,3,5-triazine], the melting point is 256 °C (dec.).

In turn, `CC1CN(c2cc(N3CC(C)OC(C)C3)nc(-n3c(C(F)F)nc4cc(N)ccc43)n2)CC(C)O1` (stereo not shown) [Compound 17, 2-(5-Amino-2-difluoromethylbenzimidazol-1-yl)-4,6-di(2,6-dimethylmorpholino)pyrimidine] had a melting point of 157 to 160 °C. Moreover, in the data set on mouse spleen cells (setting [2]), the IC50 is 10000 to 100000 nM. The IC50 in the data set with mouse spleen cells (setting [3]) was in the range of 100 to 10000 nM. Also, the IC50 in the data set with mouse spleen cells (setting [4]) lay within 100 to 10000 nM.

For the compound `O=CN1CCN(c2nc(N3CCOCC3)nc(-n3c(C(F)F)nc4ccccc43)n2)CC1` [Production Example 33, 2-(2-Difluoromethylbenzimidazol-1-yl)-6-(4-formylpiperazin-1-yl)-4-morpholino-1,3,5-triazine], the melting point fell in the range of 228 to 230 °C.

Take `CC1(C)CN(c2cc(N3CCOCC3)nc(-n3c(C(F)F)nc4c(O)cccc43)n2)CCO1` [Compound 21, 2-(2-Difluoromethyl-4-hydroxybenzimidazol-1-yl)-4-(2,2-dimethylmorpholino)-6-morpholinopyrimidine]: the melting point was 185 to 187 °C. Further, the IC50 in the data set on mouse spleen cells (setting [2]) was not above 1 nM. The IC50 with mouse spleen cells (setting [3]) is not above 1 nM. In addition, the IC50 in the data set with mouse spleen cells (setting [4]) was not above 1 nM.

`Oc1ccc2c(c1)nc(C(F)F)n2-c1nc(N2CCOCC2)nc(N2CCOCC2)n1` [Compound 12, 2-(2-Difluoromethyl-5-hydroxybenzimidazol-1-yl)-4,6-dimorpholino-1,3,5-triazine] had a melting point of 272 to 274 °C. In the data set with mouse spleen cells (setting [2]), the IC50 lay within 1 to 100 nM. In addition, the IC50 with mouse spleen cells (setting [3]) was 1 to 100 nM. Moreover, the IC50 in the data set on mouse spleen cells (setting [4]) fell in the range of 1 to 100 nM.

`C[C@@H]1OCCN(c2nc(N3CCOCC3)nc(-n3cnc4ccccc43)n2)[C@H]1C` (relative stereo) [Compound 2, 2-(Benzimidazol-1-yl)-4-(trans-2,3-dimethylmorpholino)-6-morpholino-1,3,5-triazine] returned a melting point of 147 to 150 °C. In addition, in the data set on mouse spleen cells (setting [2]), the IC50 is 100 to 10000 nM. The IC50 with mouse spleen cells (setting [3]) was 100 to 10000 nM. Also, the IC50 in the data set with mouse spleen cells (setting [4]) lay within 100 to 10000 nM.

Turning to `ON1CCN(c2nc(N3CCOCC3)nc(-n3c(C(F)F)nc4ccccc43)n2)CC1` [Compound 26, 2-(2-Difluoromethylbenzimidazol-1-yl)-4-(4-hydroxypiperizin-1-yl)-6-morpholino-1,3,5-triazine], the IC50 is 1 to 100 nM in the data set on mouse spleen cells (LPS 100 μg/mL, read-out: Inhibition of LPS response); not above 1 nM in the data set on mouse spleen cells (concanavalin A 3 μg/mL, read-out: Inhibition of Con A response); 2380 nM in data set [1]; 426 nM in the data set on Daudi cells; 3120 nM with Jurkat cells; 865 nM with THP-1 cells.

Turning to `O=C1CN(c2nc(N3CCOCC3)nc(-n3c(C(F)F)nc4ccccc43)n2)CCN1` [Production Example 34, 2-(2-Difluoromethylbenzimidazol-1-yl)-4-morpholino-6-(3-oxopiperazin-1-yl)-1,3,5-triazine], the melting point lay within 255 to 257 °C.

On to `C[C@@H]1OCCN(c2nc(N3CCOCC3)nc(-n3c(C(F)F)nc4ccc(N)cc43)n2)[C@@H]1C` (relative stereo) [Compound 8, 2-(6-Amino-2-difluoromethylbenzimidazol-1-yl)-4-(cis-2,3-dimethylmorpholino)-6-morpholino-1,3,5-triazine], for which the melting point was 220 to 222 °C (dec.). In addition, the IC50 in the data set with mouse spleen cells (setting [2]) is 100 to 10000 nM. In addition, the IC50 in the data set with mouse spleen cells (setting [3]) lay in the range of 1 to 100 nM. In addition, in the data set on mouse spleen cells (setting [4]), the IC50 fell in the range of 1 to 100 nM.

In turn, `Nc1nc2ccccc2n1-c1nc(N2CCOCC2)cc(N2CCOCC2)n1` [Compound 5, 2-(2-Aminobenzimidazol-1-yl)-4,6-dimorpholinopyrimidine] showed a melting point of 237 to 239 °C. Further, the IC50 with mouse spleen cells (setting [2]) fell in the range of 100 to 10000 nM. Further, the IC50 in the data set with mouse spleen cells (setting [3]) fell in the range of 100 to 10000 nM. Moreover, the IC50 in the data set on mouse spleen cells (setting [4]) fell in the range of 100 to 10000 nM.

Regarding `O=C1CN(c2nc(N3CCOCC3)nc(-n3c(C(F)F)nc4ccccc43)n2)CC(=O)N1` [Production Example 35, 2-(2-Difluoromethylbenzimidazol-1-yl)-6-(3,5-dioxopiperazin-1-yl)-4-morpholino-1,3,5-triazine], the melting point lay in the range of 230 to 232 °C.

Consider `FC(F)c1nc2ccccc2n1-c1nc(N2CCCCC2)nc(N2CCOCC2)n1` [Compound 7, 2-(2-Difluoromethylbenzimidazol-1-yl)-4-piperidino-6-morpholino-1,3,5-triazine], for which the melting point is 190 to 192 °C. The IC50 in the data set on mouse spleen cells (setting [2]) is 100 to 10000 nM. Besides, the IC50 in the data set on mouse spleen cells (setting [3]) was 100 to 10000 nM. Also, in the data set with mouse spleen cells (setting [4]), the IC50 is 100 to 10000 nM.

Consider `Oc1ccc2c(nc(C(F)F)n2-c2nc(N3CCOCC3)nc(N3CCOCC3)n2)c1Cl` [Production Example 31, 2-(4-Chloro-2-difluoromethyl-5-hydroxybenzimidazol-1-yl)-4,6-dimorpholino-1,3,5-triazine], for which the melting point was more than 250 °C.

Regarding `Cc1cc2nc(C(F)F)n(-c3nc(N4CCOCC4)nc(N4CCOCC4)n3)c2cc1C` [Production Example 29, 2-(5,6-Dimethyl-2-difluoromethylbenzimidazol-1-yl)-4,6-dimorpholino-1,3,5-triazine], the melting point fell in the range of 217 to 220 °C.

The record behind these values is patent publication US8338414B2, “Immunosuppressive agent and anti-tumor agent comprising heterocyclic compound as active ingredient” (Zenyaku Kogyo KabushikiKaisha, priority 2005, dated 2012).
